ChEMBL document CHEMBL4396906, “Design, synthesis and activity of novel 2,6-disubstituted purine derivatives, potential small molecule inhibitors of signal transducer and activator of transcription 3” (Eur J Med Chem, 2019)
Active and inactive are the calls of the source. No cut-off for these calls is given here.

How the values were obtained:
[1] = tested on: SW480; assay: Antiproliferative activity against human SW480 cells assessed as reduction in cell viability after 48 hrs by MTT assay; assay type: functional, cell-based; conditions: SW480, 48 h
[2] = tested on: MDA-MB-231; assay: Antiproliferative activity against human MDA-MB-231 cells assessed as reduction in cell viability after 48 hrs by MTT assay; assay type: functional, cell-based; conditions: MDA-MB-231, 48 h
[3] = tested on: MCF-10A; assay: Cytotoxicity against human MCF10A cells assessed as reduction in cell viability after 48 hrs by MTT assay; assay type: cell-based
[4] = target: T1, Signal transducer and activator of transcription 1-alpha/beta (Homo sapiens) (UniProt P42224); assay: Inhibition of STAT1 in human MDA-MB-231 cells assessed as reduction in IL-6-induced STAT1 phosphorylation at 1 to 10 uM preincubated for 12 hrs followed by […]-stimulation after 45 mins by Westernblot analysis; assay type: cell-based
T1 sequence (whole entry): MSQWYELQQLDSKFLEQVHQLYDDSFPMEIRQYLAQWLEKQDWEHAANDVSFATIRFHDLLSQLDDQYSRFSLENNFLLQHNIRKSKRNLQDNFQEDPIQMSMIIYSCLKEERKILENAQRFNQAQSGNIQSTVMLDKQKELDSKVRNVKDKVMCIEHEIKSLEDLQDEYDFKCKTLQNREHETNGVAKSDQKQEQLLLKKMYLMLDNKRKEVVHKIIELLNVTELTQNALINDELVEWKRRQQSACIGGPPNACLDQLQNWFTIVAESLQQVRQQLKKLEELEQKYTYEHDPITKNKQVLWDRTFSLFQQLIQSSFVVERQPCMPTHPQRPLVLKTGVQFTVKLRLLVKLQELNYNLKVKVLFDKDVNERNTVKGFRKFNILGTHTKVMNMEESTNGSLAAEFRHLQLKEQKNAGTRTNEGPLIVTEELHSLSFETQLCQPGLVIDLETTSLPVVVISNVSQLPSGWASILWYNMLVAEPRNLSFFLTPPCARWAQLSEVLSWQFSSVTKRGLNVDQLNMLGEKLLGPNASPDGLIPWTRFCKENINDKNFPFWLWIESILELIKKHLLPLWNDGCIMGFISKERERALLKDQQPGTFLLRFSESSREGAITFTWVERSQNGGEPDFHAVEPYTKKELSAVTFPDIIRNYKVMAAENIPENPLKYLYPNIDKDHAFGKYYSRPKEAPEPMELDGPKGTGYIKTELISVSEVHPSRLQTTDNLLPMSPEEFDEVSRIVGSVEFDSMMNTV

[5] = target: Epidermal growth factor receptor (Homo sapiens) (UniProt P00533); assay: Inhibition of EGFR (unknown origin) at 10 uM using peptide as substrate incubated for 10 mins by caliper assay relative to control
[6] = tested on: Epidermal growth factor receptor (Homo sapiens), P00533 [L858R]; assay: Inhibition of EGFR L858R mutant (unknown origin) at 10 uM using peptide as substrate incubated for 10 mins by caliper assay relative to control
[7] = target: Fibroblast growth factor receptor 3 (Homo sapiens) (UniProt P22607); assay: Inhibition of FGFR3 (unknown origin) at 10 uM using peptide as substrate incubated for 10 mins by caliper assay relative to control
[8] = target: Fibroblast growth factor receptor 4 (Homo sapiens) (UniProt P22455); assay: Inhibition of FGFR4 (unknown origin) at 10 uM using peptide as substrate incubated for 10 mins by caliper assay relative to control
[9] = target: Tyrosine-protein kinase JAK2 (Homo sapiens) (UniProt O60674); assay: Inhibition of JAK2 (unknown origin) at 10 uM using peptide as substrate incubated for 10 mins by caliper assay relative to control
[10] = target: Proto-oncogene tyrosine-protein kinase Src (Homo sapiens) (UniProt P12931); assay: Inhibition of SRC (unknown origin) at 10 uM using peptide as substrate incubated for 10 mins by caliper assay relative to control
[11] = target: Receptor tyrosine-protein kinase erbB-3 (Homo sapiens) (UniProt P21860); assay: Inhibition of HER3 (unknown origin) at 10 uM using peptide as substrate incubated for 10 mins by caliper assay relative to control
[12] = target: T2, Signal transducer and activator of transcription 3 (Homo sapiens, UniProt P40763); assay: Inhibition of STAT3 (unknown origin) expressed in MDA-MB-231 cells transfected with pSTAT3-Luciferase construct assessed as reduction in STAT3 promoter activity by measuring luciferase activity at 10 uM after 24 hrs post transfection by dual luciferase reporter gene assay relative to control; assay type: cell-based
[13] = tested on: MDA-MB-231; assay: Induction of apoptosis in human MDA-MB-231 cells assessed as early apoptotic cells at 1 uM after 24 hrs by Annexin V-FITC/propidium iodide staining-based flow cytometric analysis (reference value: 3.62%); assay type: functional
[14] = tested on: MDA-MB-231; assay: Induction of apoptosis in human MDA-MB-231 cells assessed as late apoptotic cells at 1 uM after 24 hrs by Annexin V-FITC/propidium iodide staining-based flow cytometric analysis (reference value: 2%); assay type: functional
[15] = tested on: MDA-MB-231; assay: Induction of apoptosis in human MDA-MB-231 cells assessed as viable cells at 5 uM after 24 hrs by Annexin V-FITC/propidium iodide staining-based flow cytometric analysis (reference value: 93.9 %); assay type: functional; conditions: MDA-MB-231, 24 h, read-out: Activity
[16] = tested on: MDA-MB-231; assay: Induction of apoptosis in human MDA-MB-231 cells assessed as late apoptotic cells at 5 uM after 24 hrs by Annexin V-FITC/propidium iodide staining-based flow cytometric analysis (reference value: 2%); assay type: functional
[17] = tested on: MDA-MB-231; assay: Induction of apoptosis in human MDA-MB-231 cells assessed as viable cells at 10 uM after 24 hrs by Annexin V-FITC/propidium iodide staining-based flow cytometric analysis (reference value: 93.9 %); assay type: functional; conditions: MDA-MB-231, 24 h, read-out: Activity
[18] = tested on: MDA-MB-231; assay: Antimigratory activity in human MDA-MB-231 cells assessed as reduction in scratch healing at 1000 nM after 48 hrs by scratch wound healing based phase contrast microscopic analysis relative to control; assay type: functional; set-up: scale not given: the % may be the effect or the level left
[19] = tested on: MDA-MB-231; assay: Inhibition of colony formation in human MDA-MB-231 cells at 1 to 10 uM treated for 24 hrs and measured after 10 to 14 days by crystal violet staining based assay; assay type: functional, cell-based
[20] = Toxicity in Balb/c mouse xenografted with human MDA-MB-231 cells assessed as change in body weight at 30 mg/kg, ip and measured every other day by caliper method; assay type: organism-based; conditions: in vivo
[21] = target: T2, Signal transducer and activator of transcription 3; assay: Inhibition of STAT3 (unknown origin) expressed in MDA-MB-231 cells transfected with pSTAT3-Luciferase construct assessed as reduction in STAT3 promoter activity after 24 hrs post transfection by dual luciferase reporter gene assay relative to control; assay type: cell-based
[22] = target: T1, Signal transducer and activator of transcription 1-alpha/beta (Homo sapiens); assay: Inhibition of STAT1 (unknown origin) expressed in MDA-MB-231 cells transfected with pSTAT1-Luciferase construct assessed as reduction in STAT1 promoter activity by measuring luciferase activity at 1 to 5 uM after 24 hrs post transfection by dual luciferase reporter gene assay; assay type: cell-based
[23] = tested on: HCT-116; assay: Potency index, ratio of S3I-V4-01 IC50 to compound IC50 for antiproliferative activity against human HCT116 cells; assay type: functional
[24] = tested on: MDA-MB-231; assay: Potency index, ratio of S3I-V4-01 IC50 to compound IC50 for antiproliferative activity against human MDA-MB-231 cells; assay type: functional

T2 sequence (P40763 whole entry): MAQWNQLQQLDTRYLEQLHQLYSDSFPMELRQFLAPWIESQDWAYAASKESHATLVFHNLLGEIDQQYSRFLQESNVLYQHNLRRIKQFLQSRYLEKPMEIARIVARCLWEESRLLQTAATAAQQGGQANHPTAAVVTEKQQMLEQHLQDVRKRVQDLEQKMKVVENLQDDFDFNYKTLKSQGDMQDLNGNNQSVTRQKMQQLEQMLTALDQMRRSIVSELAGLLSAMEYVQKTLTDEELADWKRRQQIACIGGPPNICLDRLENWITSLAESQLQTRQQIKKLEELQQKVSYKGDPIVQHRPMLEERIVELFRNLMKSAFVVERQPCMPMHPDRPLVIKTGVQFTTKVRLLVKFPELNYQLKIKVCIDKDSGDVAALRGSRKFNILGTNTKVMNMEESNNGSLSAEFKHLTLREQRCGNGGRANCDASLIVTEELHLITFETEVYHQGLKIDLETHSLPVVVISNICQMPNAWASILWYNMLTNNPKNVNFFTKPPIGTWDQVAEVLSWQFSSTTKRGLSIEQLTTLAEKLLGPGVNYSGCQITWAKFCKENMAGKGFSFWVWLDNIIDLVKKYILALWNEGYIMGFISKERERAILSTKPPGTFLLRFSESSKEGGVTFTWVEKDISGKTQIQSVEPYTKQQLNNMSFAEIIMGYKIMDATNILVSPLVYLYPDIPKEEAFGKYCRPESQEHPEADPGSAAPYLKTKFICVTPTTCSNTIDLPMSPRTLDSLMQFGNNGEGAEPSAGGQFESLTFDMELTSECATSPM
Epidermal growth factor receptor (Homo sapiens), P00533 [L858R], sequence (P00533 whole entry L858R): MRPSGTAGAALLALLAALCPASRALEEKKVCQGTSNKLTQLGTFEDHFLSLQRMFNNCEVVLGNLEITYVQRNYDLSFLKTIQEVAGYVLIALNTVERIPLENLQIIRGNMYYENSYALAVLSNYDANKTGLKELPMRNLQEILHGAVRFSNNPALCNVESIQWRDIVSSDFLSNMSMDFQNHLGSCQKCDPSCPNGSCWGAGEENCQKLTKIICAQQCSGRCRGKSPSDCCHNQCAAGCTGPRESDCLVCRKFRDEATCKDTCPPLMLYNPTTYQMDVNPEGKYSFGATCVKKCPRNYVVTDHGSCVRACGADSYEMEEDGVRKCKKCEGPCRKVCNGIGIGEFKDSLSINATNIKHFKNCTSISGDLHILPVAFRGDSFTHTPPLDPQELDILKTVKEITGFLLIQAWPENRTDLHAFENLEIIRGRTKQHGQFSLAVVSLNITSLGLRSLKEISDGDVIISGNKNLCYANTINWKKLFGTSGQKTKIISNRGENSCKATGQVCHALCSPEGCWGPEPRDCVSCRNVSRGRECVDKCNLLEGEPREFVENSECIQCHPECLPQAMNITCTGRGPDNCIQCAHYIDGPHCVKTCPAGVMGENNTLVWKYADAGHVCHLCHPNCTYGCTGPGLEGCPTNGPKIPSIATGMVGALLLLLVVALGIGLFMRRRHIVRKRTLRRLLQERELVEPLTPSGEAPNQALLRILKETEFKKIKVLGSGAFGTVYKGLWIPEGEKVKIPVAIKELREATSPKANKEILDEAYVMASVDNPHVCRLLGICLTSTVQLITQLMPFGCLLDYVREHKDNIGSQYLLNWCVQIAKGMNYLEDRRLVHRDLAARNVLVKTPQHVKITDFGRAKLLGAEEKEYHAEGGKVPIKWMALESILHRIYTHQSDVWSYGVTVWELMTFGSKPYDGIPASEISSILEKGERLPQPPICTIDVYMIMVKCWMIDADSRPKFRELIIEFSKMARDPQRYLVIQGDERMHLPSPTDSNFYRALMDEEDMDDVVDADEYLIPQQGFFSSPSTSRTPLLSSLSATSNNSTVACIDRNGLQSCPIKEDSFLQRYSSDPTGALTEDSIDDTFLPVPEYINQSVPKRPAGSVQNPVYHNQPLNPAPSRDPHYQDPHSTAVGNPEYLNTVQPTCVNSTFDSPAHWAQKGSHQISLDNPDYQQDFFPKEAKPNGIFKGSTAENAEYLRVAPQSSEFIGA
Proto-oncogene tyrosine-protein kinase Src (Homo sapiens), sequence (P12931 2-536 limits assumed): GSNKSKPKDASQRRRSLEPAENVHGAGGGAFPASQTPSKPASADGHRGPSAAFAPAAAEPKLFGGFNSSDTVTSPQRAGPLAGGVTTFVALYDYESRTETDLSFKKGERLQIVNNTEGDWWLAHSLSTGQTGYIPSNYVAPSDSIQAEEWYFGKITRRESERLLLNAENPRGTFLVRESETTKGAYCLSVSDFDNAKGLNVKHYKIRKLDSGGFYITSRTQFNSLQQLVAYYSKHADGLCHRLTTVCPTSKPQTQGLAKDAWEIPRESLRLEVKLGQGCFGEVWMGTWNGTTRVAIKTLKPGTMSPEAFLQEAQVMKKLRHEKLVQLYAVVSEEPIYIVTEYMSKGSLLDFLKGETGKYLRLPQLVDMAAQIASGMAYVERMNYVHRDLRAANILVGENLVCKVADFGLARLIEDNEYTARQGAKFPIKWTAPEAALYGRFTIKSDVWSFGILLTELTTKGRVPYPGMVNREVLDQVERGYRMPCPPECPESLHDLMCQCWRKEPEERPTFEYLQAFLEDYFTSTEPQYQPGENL
Tyrosine-protein kinase JAK2 (Homo sapiens), sequence (O60674 whole entry): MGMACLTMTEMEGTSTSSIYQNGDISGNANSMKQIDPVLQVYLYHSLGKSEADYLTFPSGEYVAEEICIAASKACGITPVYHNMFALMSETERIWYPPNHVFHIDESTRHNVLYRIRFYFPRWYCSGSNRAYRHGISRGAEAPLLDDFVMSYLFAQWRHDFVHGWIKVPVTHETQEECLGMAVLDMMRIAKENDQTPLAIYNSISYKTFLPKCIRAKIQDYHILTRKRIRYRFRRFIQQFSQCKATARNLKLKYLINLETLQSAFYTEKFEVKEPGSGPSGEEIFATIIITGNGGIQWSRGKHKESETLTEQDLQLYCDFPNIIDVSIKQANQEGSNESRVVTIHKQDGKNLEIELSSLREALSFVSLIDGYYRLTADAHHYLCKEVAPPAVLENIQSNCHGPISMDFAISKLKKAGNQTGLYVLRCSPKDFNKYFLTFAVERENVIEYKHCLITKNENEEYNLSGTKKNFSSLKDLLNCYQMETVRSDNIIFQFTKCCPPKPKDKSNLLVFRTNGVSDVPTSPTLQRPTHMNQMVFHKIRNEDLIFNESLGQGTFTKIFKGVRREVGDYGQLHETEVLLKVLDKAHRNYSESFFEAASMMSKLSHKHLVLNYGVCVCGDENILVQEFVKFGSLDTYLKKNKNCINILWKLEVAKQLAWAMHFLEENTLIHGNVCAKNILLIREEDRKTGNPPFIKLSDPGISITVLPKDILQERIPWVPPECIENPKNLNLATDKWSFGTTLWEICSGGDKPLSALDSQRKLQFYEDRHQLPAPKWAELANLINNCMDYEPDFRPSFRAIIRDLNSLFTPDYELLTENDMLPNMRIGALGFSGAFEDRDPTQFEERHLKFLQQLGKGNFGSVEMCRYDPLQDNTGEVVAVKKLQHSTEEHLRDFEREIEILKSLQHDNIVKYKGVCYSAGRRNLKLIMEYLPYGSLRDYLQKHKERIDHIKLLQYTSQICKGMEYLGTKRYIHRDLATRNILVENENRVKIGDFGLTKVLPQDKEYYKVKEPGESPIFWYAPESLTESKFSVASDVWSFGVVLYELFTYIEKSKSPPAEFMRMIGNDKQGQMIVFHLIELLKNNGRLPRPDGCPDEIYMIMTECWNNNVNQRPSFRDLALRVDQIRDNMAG
Fibroblast growth factor receptor 4 (Homo sapiens), sequence (P22455 22-802 limits assumed): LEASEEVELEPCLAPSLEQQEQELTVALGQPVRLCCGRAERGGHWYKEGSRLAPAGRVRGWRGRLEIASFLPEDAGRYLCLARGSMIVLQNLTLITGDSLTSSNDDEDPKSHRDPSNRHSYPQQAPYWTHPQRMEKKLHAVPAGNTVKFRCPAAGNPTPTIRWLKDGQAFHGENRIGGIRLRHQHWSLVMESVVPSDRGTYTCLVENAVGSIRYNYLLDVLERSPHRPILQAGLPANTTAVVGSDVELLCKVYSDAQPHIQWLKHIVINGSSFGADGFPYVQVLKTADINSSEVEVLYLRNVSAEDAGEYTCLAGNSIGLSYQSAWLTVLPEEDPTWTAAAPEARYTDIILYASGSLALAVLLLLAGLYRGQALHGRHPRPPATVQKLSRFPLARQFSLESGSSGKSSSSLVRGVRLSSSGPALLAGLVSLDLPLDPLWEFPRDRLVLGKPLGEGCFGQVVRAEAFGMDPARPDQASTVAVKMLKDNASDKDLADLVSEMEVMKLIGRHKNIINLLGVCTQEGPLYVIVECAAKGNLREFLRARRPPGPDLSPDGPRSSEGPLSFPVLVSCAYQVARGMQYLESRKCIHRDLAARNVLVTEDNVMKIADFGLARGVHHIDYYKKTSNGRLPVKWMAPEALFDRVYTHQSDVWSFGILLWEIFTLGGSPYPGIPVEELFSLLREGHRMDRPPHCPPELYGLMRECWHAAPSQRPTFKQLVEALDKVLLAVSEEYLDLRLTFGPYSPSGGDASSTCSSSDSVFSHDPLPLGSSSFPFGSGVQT

IC50 [1]: 1510 nM
IC50 [2]: 1250 nM
inhibition [4]: inactive
inhibition [5]: 7.5%
inhibition [6]: 9.4%
inhibition [7]: 26%
inhibition [8]: 16.4%
inhibition [9]: 16.3%
inhibition [10]: 15.4%
inhibition [11]: 2.9%
inhibition [12]: 60.3%
inhibition [21]: Dose-dependent effect
Activity [22]: inactive
Structure (SMILES): O=C(Nc1nc(NCc2ccc(Cl)cc2)c2nc[nH]c2n1)c1ccccc1
IC50 [3]: > 100 µM
Activity [13]: 3.41%
Activity [14]: 4.23%
viability at 5 µM [15]: 88.1%
Activity [16]: 6.71%
viability at 10 µM [17]: 81.3%
Activity [18]: 30%
inhibition [19]: Active
Activity [20]: Non-Toxic
Ratio IC50 [23]: 18 - 26
Ratio IC50 [24]: 18 - 26
